The source of these data is ChEMBL document CHEMBL1139192, “Novel bis(indolyl)maleimide pyridinophanes that are potent, selective inhibitors of glycogen synthase kinase-3” (Bioorg Med Chem Lett, 2007).

The target in test [1] is Glycogen synthase kinase-3 beta (Homo sapiens, UniProt P49841). Nature of the test: Residual activity of human GSK3-beta at 1 uM relative to control.
Test [2] has as its target Proto-oncogene tyrosine-protein kinase Src (Homo sapiens) (UniProt P12931). Kind of test: Residual activity of human cSRC at 1 uM relative to control.
Test [3] addresses Ribosomal protein S6 kinase alpha-5 (Homo sapiens, UniProt O75582). Kind of test: Inhibition of human MSK1 at 1 uM relative to control; values are per cent of control.
Test [4] is filed under the species Homo sapiens. Nature of the test: Residual activity of human CDK3/Cyclin E at 1 uM relative to control.
In test [5] the target is Tyrosine-protein kinase ABL1 (Homo sapiens) (UniProt P00519). Kind of test: Residual activity of human Abl kinase at 1 uM relative to control.
Chain of Tyrosine-protein kinase ABL1 (Homo sapiens) (P00519 whole entry): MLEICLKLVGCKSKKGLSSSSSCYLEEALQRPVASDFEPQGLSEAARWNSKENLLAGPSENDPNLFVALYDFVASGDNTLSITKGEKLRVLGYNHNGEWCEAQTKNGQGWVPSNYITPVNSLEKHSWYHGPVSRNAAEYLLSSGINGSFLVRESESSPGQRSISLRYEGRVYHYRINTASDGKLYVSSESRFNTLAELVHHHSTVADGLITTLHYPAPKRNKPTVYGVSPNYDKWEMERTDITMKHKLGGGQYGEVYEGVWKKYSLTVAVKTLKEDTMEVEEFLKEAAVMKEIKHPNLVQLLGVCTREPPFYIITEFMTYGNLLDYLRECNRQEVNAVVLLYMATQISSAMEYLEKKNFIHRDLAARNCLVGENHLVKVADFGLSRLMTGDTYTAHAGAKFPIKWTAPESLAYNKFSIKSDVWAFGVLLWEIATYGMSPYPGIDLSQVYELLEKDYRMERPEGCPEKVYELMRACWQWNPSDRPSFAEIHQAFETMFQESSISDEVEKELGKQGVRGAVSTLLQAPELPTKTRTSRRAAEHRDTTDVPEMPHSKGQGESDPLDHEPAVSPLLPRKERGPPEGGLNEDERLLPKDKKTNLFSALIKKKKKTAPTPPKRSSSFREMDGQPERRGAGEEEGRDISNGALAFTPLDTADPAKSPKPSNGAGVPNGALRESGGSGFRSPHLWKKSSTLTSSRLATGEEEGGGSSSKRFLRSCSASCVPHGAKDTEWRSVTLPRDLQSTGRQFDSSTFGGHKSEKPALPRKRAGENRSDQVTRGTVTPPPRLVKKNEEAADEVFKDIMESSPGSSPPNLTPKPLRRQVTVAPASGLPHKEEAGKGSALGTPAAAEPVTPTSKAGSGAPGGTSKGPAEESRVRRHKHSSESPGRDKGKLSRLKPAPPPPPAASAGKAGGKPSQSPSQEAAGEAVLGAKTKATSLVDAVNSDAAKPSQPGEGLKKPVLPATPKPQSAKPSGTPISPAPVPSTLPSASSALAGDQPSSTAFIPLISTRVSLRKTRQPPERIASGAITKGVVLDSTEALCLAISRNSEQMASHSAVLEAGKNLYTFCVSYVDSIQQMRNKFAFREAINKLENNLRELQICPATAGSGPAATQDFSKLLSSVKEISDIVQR
The target of test [6] is Protein kinase C beta type (Homo sapiens, UniProt P05771). Kind of test: Residual activity of human PKCbeta2 at 1 uM relative to control.
Test [7] is filed under the species Homo sapiens. Kind of test: Inhibition of human PKA at 1 uM relative to control; values are per cent of control.
Test [8] deals with Tyrosine-protein kinase Lyn (Mus musculus) (UniProt P25911). Nature of the test: Inhibition of mouse Lyn at 1 uM relative to control; values are per cent of control.
Chain of Tyrosine-protein kinase Lyn (Mus musculus) (P25911 whole entry): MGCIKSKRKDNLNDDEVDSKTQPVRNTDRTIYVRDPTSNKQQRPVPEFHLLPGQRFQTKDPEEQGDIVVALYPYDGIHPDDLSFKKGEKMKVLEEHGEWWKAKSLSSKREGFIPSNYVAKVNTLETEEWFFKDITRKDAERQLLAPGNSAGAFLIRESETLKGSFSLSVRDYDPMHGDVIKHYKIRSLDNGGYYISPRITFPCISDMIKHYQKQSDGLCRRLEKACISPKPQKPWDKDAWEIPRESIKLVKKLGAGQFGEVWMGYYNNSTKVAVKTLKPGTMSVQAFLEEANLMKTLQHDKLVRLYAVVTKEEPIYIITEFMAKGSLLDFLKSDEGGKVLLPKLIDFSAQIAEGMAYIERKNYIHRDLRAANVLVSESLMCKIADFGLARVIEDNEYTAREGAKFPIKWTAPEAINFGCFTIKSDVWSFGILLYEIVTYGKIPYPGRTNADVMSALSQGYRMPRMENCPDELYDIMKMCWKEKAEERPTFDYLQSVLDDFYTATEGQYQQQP
Test [9] concerns the target Mitogen-activated protein kinase 1 (Homo sapiens) (UniProt P28482). Kind of test: Inhibition of MAPK1 at 1 uM relative to control; values are per cent of control.
For test [10], the target named is T1, Dual specificity mitogen-activated protein kinase kinase 6 (Homo sapiens) (UniProt P52564).
T1 sequence (whole entry): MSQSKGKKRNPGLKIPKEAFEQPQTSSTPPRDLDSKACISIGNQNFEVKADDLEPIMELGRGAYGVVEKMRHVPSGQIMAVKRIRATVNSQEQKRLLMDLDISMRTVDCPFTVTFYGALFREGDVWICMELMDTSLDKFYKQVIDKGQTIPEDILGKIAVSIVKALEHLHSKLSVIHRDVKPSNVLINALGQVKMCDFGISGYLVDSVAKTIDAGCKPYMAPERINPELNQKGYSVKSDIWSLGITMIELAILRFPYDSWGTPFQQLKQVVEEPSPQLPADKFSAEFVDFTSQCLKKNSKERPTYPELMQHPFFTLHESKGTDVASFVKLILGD
Nature of the test: Inhibition of human MKK6 at 1 uM relative to control; values are per cent of control.

Test [11] addresses T2, Serine/threonine-protein kinase Nek2 (Homo sapiens) (UniProt P51955).
T2 sequence (whole entry): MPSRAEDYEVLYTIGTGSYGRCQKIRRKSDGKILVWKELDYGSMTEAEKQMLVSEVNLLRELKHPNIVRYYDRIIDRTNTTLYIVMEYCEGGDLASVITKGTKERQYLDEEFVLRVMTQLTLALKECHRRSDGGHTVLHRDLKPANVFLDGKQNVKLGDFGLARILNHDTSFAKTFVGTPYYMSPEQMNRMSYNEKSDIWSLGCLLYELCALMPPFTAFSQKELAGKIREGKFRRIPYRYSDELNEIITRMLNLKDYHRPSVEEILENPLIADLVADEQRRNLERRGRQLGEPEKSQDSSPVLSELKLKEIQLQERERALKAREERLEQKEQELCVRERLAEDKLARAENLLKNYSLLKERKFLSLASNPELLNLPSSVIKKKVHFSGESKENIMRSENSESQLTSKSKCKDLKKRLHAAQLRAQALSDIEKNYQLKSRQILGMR
Nature of the test: Inhibition of human NEK2 at 1 uM relative to control; values are per cent of control.

The target in test [12] is Ribosomal protein S6 kinase beta-1 (Homo sapiens) (UniProt P23443). Nature of the test: Inhibition of human p70S6K at 1 uM relative to control; values are per cent of control.
Test [13] has as its target Tyrosine-protein kinase Fes/Fps (Homo sapiens) (UniProt P07332). Nature of the test: Inhibition of human Fes at 1 uM relative to control; values are per cent of control.
Test [14] has as its target BDNF/NT-3 growth factors receptor (Homo sapiens, UniProt Q16620). Kind of test: Residual activity of human TrkB at 1 uM relative to control.
For test [15], the target named is Mitogen-activated protein kinase 14 (Homo sapiens) (UniProt Q16539). Nature of the test: Inhibition of human SAPK2a at 1 uM relative to control; values are per cent of control.
Chain of Mitogen-activated protein kinase 14 (Homo sapiens) (Q16539 whole entry): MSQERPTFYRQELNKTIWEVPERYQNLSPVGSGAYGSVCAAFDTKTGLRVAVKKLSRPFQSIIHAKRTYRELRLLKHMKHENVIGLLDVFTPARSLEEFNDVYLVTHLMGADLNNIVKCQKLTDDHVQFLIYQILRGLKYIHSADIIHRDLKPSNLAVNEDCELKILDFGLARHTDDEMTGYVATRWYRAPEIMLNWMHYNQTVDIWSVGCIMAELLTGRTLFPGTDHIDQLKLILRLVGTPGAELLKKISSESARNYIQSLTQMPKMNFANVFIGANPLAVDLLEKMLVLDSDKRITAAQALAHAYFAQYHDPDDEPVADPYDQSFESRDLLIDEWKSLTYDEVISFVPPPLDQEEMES
The species named for another test is Mus musculus. Nature of the test: Inhibition of mouse MAPK2 at 1 uM relative to control; values are per cent of control.
Test [16] deals with T3, Serine/threonine-protein kinase D2 (Homo sapiens) (UniProt Q9BZL6).
T3 sequence (whole entry): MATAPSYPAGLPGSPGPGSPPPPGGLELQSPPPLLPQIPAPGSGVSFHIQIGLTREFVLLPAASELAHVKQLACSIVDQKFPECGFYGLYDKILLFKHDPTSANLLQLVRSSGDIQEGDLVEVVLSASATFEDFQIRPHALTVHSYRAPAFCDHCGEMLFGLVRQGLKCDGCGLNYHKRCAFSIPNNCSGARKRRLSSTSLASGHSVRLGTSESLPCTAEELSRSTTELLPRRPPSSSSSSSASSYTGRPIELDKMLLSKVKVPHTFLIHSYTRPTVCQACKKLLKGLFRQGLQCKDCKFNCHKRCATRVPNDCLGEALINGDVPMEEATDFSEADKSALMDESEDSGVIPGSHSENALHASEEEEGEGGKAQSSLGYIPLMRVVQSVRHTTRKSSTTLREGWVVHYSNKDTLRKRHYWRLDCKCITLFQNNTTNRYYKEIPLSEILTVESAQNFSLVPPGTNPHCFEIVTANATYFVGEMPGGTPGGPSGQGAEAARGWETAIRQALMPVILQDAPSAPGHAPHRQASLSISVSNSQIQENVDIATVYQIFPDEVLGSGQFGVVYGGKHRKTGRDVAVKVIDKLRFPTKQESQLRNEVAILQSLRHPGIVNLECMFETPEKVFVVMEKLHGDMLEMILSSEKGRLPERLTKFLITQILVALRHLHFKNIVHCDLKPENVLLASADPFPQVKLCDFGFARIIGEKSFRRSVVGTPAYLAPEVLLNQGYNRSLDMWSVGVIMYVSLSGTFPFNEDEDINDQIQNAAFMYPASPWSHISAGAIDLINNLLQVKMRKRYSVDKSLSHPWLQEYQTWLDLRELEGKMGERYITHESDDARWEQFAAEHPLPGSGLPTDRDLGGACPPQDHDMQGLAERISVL
Kind of test: Inhibition of human PKD2 at 1 uM relative to control; values are per cent of control.

Chain of BDNF/NT-3 growth factors receptor (Q16620 32-822 limits assumed): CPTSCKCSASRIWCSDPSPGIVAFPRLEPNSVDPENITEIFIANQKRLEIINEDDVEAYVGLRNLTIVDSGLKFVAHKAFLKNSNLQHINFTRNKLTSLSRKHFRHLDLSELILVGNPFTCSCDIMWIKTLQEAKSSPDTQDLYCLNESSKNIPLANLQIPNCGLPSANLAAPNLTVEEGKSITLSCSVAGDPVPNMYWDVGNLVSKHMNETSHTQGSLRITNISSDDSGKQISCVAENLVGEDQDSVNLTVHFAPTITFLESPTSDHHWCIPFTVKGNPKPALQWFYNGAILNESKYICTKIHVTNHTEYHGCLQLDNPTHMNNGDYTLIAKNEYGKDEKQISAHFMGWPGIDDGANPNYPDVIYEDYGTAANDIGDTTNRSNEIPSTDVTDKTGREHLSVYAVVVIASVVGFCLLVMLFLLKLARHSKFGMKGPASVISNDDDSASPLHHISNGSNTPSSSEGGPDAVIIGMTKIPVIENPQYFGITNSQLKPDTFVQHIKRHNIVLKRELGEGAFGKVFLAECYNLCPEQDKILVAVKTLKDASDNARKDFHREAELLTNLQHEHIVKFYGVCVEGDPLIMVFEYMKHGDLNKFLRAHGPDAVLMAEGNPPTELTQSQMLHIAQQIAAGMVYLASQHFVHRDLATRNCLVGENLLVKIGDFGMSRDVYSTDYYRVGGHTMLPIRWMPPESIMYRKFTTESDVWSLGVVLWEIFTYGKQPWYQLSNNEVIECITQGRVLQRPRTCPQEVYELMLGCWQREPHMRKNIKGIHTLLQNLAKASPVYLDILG
Chain of Tyrosine-protein kinase Fes/Fps (Homo sapiens) (P07332 whole entry): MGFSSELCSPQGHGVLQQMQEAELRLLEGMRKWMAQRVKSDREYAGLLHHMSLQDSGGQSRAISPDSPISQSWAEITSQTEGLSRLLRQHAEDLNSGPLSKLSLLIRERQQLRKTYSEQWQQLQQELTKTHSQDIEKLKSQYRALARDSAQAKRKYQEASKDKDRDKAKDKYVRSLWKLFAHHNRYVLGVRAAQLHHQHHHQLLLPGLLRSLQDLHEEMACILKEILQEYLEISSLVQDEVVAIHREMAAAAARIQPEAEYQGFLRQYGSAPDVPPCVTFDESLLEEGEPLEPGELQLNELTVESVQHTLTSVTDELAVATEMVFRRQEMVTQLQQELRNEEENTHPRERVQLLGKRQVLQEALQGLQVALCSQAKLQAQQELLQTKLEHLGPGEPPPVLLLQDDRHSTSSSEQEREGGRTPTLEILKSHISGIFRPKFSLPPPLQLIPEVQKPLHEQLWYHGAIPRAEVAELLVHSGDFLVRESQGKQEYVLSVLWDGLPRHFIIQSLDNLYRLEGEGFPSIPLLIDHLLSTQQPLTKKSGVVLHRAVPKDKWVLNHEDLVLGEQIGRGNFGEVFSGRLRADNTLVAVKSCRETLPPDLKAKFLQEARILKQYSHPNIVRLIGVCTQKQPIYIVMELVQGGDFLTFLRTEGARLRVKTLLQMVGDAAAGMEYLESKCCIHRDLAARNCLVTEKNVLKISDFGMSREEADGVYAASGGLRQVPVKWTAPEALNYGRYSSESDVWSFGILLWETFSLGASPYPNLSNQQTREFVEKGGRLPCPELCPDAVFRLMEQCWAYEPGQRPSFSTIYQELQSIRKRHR
Chain of Mitogen-activated protein kinase 1 (Homo sapiens) (P28482 whole entry): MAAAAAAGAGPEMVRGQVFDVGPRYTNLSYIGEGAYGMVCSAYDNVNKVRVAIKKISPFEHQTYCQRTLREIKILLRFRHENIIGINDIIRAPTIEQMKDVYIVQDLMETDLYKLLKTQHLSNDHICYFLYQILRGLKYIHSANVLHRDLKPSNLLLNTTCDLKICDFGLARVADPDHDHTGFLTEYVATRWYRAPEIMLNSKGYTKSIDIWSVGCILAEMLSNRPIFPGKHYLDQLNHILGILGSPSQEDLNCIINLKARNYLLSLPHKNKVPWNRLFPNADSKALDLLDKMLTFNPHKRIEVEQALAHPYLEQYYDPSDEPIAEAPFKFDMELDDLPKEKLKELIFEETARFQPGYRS
Chain of Glycogen synthase kinase-3 beta (P49841 whole entry, looked up): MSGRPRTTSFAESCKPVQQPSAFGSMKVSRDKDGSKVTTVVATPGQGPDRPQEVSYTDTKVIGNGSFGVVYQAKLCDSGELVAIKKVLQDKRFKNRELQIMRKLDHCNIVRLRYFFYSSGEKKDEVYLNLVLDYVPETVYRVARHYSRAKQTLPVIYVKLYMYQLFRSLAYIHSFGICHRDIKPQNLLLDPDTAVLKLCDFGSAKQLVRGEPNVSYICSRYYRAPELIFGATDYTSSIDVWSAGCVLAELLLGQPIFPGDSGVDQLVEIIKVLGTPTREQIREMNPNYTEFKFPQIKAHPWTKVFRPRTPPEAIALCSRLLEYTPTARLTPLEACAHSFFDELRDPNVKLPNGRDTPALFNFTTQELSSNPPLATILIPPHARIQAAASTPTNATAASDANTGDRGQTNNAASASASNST
Chain of Proto-oncogene tyrosine-protein kinase Src (Homo sapiens) (P12931 2-536 limits assumed): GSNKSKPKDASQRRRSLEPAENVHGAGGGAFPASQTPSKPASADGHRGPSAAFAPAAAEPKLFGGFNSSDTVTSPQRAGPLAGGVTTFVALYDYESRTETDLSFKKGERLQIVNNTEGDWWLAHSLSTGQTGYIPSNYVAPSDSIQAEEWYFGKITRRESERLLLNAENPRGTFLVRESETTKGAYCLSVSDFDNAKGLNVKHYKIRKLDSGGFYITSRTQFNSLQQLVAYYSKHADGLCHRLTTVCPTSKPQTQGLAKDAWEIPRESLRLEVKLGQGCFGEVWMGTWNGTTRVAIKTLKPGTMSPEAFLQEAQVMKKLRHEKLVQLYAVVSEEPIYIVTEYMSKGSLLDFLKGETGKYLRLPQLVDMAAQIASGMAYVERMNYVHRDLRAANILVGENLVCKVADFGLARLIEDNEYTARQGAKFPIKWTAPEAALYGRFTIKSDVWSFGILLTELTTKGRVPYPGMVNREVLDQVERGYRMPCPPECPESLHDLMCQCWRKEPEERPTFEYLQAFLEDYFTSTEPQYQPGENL

Regarding `CN(C)c1cc2cc(n1)CCCn1cc(c3ccccc31)C1=C(C(=O)NC1=O)c1cn(c3ccccc13)CCC2`, the residual activity in [1] was found to be 1%; in test [2] it was 105%; in test [3], 58%; in the test filed under Homo sapiens [4] it was 89%; in test [5], 98%; in [6], 68%. Besides, the residual activity in the test listed under Homo sapiens [7] worked out at 95%; in [8], 102%; in test [9] it was 86%; in [10], 86%; in test [11] it was 102%; in test [12], 91%. Further, the residual activity amounted to 133% in test [13]; 98% in test [14]; 92% in [15]; 95% in the test filed under Mus musculus; 97% in [16].
For the compound `O=C1NC(=O)C2=C1c1cn(c3ccccc13)CCCc1ccc(c(N3CCCC3)n1)CCCn1cc2c2ccccc21`, the residual activity is 7% in test [1]; 113% in test [2]; 104% in test [3]; 106% in the test listed under Homo sapiens [4]; 108% in test [5]; 77% in test [6]. Besides, the residual activity in the test listed under Homo sapiens [7] turned out to be 102%; in test [8], 104%; in test [9], 110%; in test [10], 85%; in [11] it was 99%; in test [12], 84%. Also, the residual activity in test [13] was 130%; in [14], 106%; in test [15], 93%; in the test listed under Mus musculus, 99%; in test [16], 115%.
Take `O=C1NC(=O)C2=C1c1cn(c3ccccc13)CCCc1cc(nc(N3CCCC3)c1)CCCn1cc2c2ccccc21`: the residual activity amounted to 3% in test [1]; 97% in [2]; 38% in test [3]; 86% in the test listed under Homo sapiens [4]; 107% in [5]; 74% in test [6]. Also, the residual activity in the test filed under Homo sapiens [7] was 104%; in [8], 99%; in [9], 99%; in [10], 91%; in [11], 105%; in [12], 95%. Further, the residual activity is 139% in test [13]; 105% in [14]; 92% in [15]; 103% in the test listed under Mus musculus; 103% in test [16].
Take `CN(C)c1nc2ccc1CCCn1cc(c3ccccc31)C1=C(C(=O)NC1=O)c1cn(c3ccccc13)CC2`: the residual activity worked out at 1% in [1]; 81% in [2]; 36% in test [3]; 59% in the test filed under Homo sapiens [4]; 105% in [5]; 64% in test [6]. The residual activity in the test listed under Homo sapiens [7] came out at 90%; in test [8], 90%; in test [9], 97%; in test [10] it was 102%; in test [11], 104%; in test [12] it was 98%. In addition, the residual activity in [13] turned out to be 107%; in test [15] it was 108%; in the test listed under Mus musculus, 95%; in test [16] it was 100%.
